Results reported in patent US7064143B1, “Positive modulators of nicotinic receptor agonists” (AstraZeneca AB, priority 2000, dated 2006).

Structure (SMILES)	melting point [°C]
Cn1c(C(=O)NC(CF)Cc2ccccc2)cc2c(O)cccc21 (centres unmarked) [Example 23, N-(1-Fluoromethyl-2-phenylethyl) 4-hydroxy-1-methyl-1H-indole-2-carboxamide]	163.5 to 165.5
Cn1c(C(=O)NC(CF)Cc2ccccc2)cc2c(O)cccc21 (single isomer, unassigned; (+)) [Example 29, (+)-N-(1-Fluoromethyl-2-phenylethyl)4-hydroxy-1-methyl-1H-indole-2-carboxamide]	157 to 158
